This is an account of results in US10287267B2, “Isoquinolin-3-yl carboxamides and preparation and use thereof” (Samumed, LLC, priority 2016, dated 2019).

Usually EC50 stands for the concentration giving half of the maximal effect.

Assay [1] concerns Tau phosphorylation at Ser396 (pSer396). In words: Tau phosphorylation assay (pSer396 ELISA / western blot) in SH-SY5Y cells.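 Also: EC50 for reduction of Tau pSer396 in lysed cells, measured by colorimetric ELISA or chemiluminescent western blot, both using the same pSer396 antibody.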 As to conditions: Homo sapiens; SH-SY5Y cells, overnight (16-18 h) exposure; read-out: pSer396 Tau EC50. It counts as cell-based, human.
The subject of assay [2] is α-smooth muscle actin (αSMA) positive LL29 cells. In words: Inhibition of fibrotic process: αSMA in TGF-β1 treated primary human fibroblasts from IPF patients.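 As to all read-outs here: controls were TGF-β1 stimulated wells with DMSO vehicle (positive) and cells given DMSO alone (negative), cultured in F12 medium with 1% fetal bovine serum.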 In kind it is cell-based. The conditions noted are these: Homo sapiens, Fibroblast; for EC50: 96 h, Table 8, LL29 fibroblasts from IPF patients, TGF-β1 20 ng/mL, 4 days, dose-response 10 μM to 0.94 nM; for inhibition at 10 µM: read-out: percent value in parentheses beside EC50 >10 μM.

Assay [3] concerns the target recombinant GSK3β kinase (Homo sapiens (Human), UniProt P49841). In words: GSK3β kinase assay (Ser/Thr 09 peptide Z-lyte FRET).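 Also: kinase activity read as coumarin to fluorescein emission ratio, 11-point threefold dilutions from 10 µM to 0.0003 µM in duplicate, unphosphorylated and phosphorylated peptide as 0% and 100% controls.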 In kind it is biochemical. The conditions noted are these: 46 μM ATP, 1 h room temperature.
The target of assay [4] is recombinant DYRK1A kinase (Homo sapiens (Human), UniProt Q13627). In words: DYRK1A kinase assay (Ser/Thr 18 peptide Z-lyte FRET).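 Also: Read-out is the coumarin to fluorescein emission ratio, referenced to unphosphorylated (0%) and phosphorylated (100%) Ser/Thr 18 peptide controls, values from dose-response curves by non-linear regression.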 In kind it is biochemical. The conditions noted are these: 30 μM ATP, 1 h room temperature.
Assay [5] concerns Wnt pathway (Sp5-Luc reporter, TCF/LEF binding sites) in SW480 colon carcinoma cells. In words: Screening assay for Wnt activity: Sp5-Luc reporter gene assay.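 As to all read-outs here: firefly luciferase luminescence read in stably transduced SW480 cells carrying the Sp5 promoter reporter with eight TCF/LEF sites, compounds given in 0.1% DMSO final.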 It counts as cell-based, human. The conditions noted are these: Homo sapiens; for inhibition at 10 µM: SW480, read-out: percent inhibition at 10 μM; for EC50: Sp5-Luc reporter, SW480 cells, 36 to 48 hours. Background: In a reporter assay the amount or activity of a reporter protein is the signal.
Description: The screening assay for Wnt activity is described as follows.
Following incubation, 15 μl of BriteLite Plus luminescence reagent (Perkin Elmer) was added to each well of the 384-well assay plates. The plates were placed on an orbital shaker for 2 min and then luminescence was quantified using the Envision (Perkin Elmer) plate reader.

For assay [6], the system named is SW480 colon carcinoma cells. In words: Cell viability assay (CellTiter-Glo). It counts as cell-based, human. As to conditions: Homo sapiens; for EC50: 96 h, SW480 cells, CellTiter-Glo, four days incubation; for inhibition at 10 µM: SW480, read-out: percent inhibition at 10 μM. Background: In ATP-based viability assays light output follows the ATP content of the culture.

Assay [7] concerns IL-6. In words: IL-6 inhibition in LPS-stimulated human peripheral blood mononuclear cells (HTRF).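 As to all read-outs here: IL-6 detected by HTRF with an XL665- and Cryptate-labelled anti-IL-6 antibody pair, samples run in duplicate, EC50 obtained from a four-parameter Levenberg-Marquardt curve fit.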 It counts as cell-based. As to conditions: Homo sapiens, PBMC; for inhibition at 10 µM: read-out: percent value in parentheses beside EC50 >10 μM; for EC50: Table 9, huPBMCs, LPS 50 ng/mL, 22 hours, dose-response starting from 10 μM.
Description: After 22 hour incubation, a mixture of anti-IL6 XL665 and anti-IL-6 Cryptate diluted in reconstitution buffer (Catalog #62IL6PEC, Cisbio Inc., Bedford, Mass.) was added to each well. […] All samples were processed in duplicate. […] EC50 was determined using software generated by Dotmatics Limited (Windhill Bishops Stortford Herts, UK) using the Levenberg-Marquardt 4 parameter fitting procedure with finite different gradients.

SMILES strings stand for the structures.

Chain of recombinant GSK3β kinase (P49841 whole entry): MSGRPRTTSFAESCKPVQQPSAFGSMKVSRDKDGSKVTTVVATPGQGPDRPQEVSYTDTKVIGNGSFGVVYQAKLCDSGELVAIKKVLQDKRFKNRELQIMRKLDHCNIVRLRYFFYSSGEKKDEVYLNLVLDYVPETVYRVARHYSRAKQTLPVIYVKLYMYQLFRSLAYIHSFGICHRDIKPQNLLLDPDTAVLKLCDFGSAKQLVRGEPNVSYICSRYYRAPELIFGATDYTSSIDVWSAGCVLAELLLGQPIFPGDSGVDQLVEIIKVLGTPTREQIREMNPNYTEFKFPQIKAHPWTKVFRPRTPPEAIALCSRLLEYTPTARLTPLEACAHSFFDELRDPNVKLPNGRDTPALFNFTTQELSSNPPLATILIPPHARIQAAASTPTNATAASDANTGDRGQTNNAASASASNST

Regarding `Cn1cc(-c2ccc3cnc(NC(=O)C4CCN(CC(=O)O)CC4)cc3c2)cn1` [Compound 1011, 2-(4-((6-(1-Methyl-1H-pyrazol-4-yl)isoquinolin-3-yl)carbamoyl)piperidin-1-yl)acetic acid], the EC50 in assay [1] is greater than 10000 nM; in assay [2] it was greater than 10000 nM; in assay [3] it was 30 nM; in assay [4] it was 2.6 nM; in assay [5], greater than 10 µM; in assay [6], greater than 10 µM. Also, in assay [7], the EC50 is greater than 10 µM. The inhibition at 10 µM in assay [2] stood at 15.9%; in assay [5] it was 25%; in assay [6] it was 25%; in assay [7] it was 15.3%.

In the case of `CN1CCCN(CC(=O)Nc2cc3cc(-c4cnn(C)c4)ccc3cn2)CC1` [Compound 1012, 2-(4-Methyl-1,4-diazepan-1-yl)-N-(6-(1-methyl-1H-pyrazol-4-yl)isoquinolin-3-yl)acetamide], the EC50 in assay [1] is 555 nM; in assay [2], greater than 10000 nM; in assay [3], 155 nM; in assay [4], 13 nM; in assay [5], 2.72 µM; in assay [6] it was 3.2 µM. In assay [7], this compound showed an EC50 of 3.12 µM. The inhibition at 10 µM in assay [2] worked out at 10.2%.

Turning to `Cn1cc(-c2cc3cc(NC(=O)C4CCNCC4)ncc3cc2Cl)cn1` [Compound 1013, N-(7-Chloro-6-(1-methyl-1H-pyrazol-4-yl)isoquinolin-3-yl)piperidine-4-carboxamide], the EC50 in assay [1] is 4200 nM; in assay [2], 2440 nM; in assay [3] it was 1430 nM; in assay [4] it was 17.1 nM; in assay [5], greater than 10 µM; in assay [6], 5.5 µM. In addition, in assay [7], the 50% effective concentration (EC50) is 6.82 µM. Also, the inhibition at 10 µM in assay [5] was 42.9%.

Take `[2H]C([2H])([2H])n1cc(-c2ccc3cnc(NC(=O)CN4CCN(C)CC4)cc3c2)cn1` [Compound 1014, N-(6-(1-(Methyl-d3)-1H-pyrazol-4-yl)isoquinolin-3-yl)-2-(4-methylpiperazin-1-yl)acetamide]: the EC50 amounted to 767 nM in assay [1]; 695 nM in assay [2]; 96 nM in assay [3]; 9.4 nM in assay [4]; 2.36 µM in assay [5]; 5.42 µM in assay [6]. This compound displayed an EC50 in assay [7] of 3.2 µM.

On to `[2H]C([2H])([2H])n1cc(-c2cc3cc(NC(=O)CN4CCCCC4)ncc3cc2F)cn1` [Compound 1015, N-(7-Fluoro-6-(1-(methyl-d3)-1H-pyrazol-4-yl)isoquinolin-3-yl)-2-(piperidin-1-yl)acetamide], for which the EC50 in assay [1] is 523 nM; in assay [2], greater than 10000 nM; in assay [3], 101 nM; in assay [4], 5.8 nM; in assay [5], 3.73 µM; in assay [6], 6.42 µM. The same compound displayed an EC50 in assay [7] of 3.12 µM. Besides, the inhibition at 10 µM in assay [2] turned out to be 9.7%.

Take `[2H]C([2H])([2H])n1cc(-c2cc(F)c3cnc(NC(=O)CN4CCCCC4)cc3c2)cn1` [Compound 1016, N-(8-Fluoro-6-(1-(methyl-d3)-1H-pyrazol-4-yl)isoquinolin-3-yl)-2-(piperidin-1-yl)acetamide]: the EC50 came to 631 nM in assay [1]; 2130 nM in assay [2]; 87 nM in assay [3]; 29.1 nM in assay [4]; 4.06 µM in assay [5]; 6.14 µM in assay [6]. The same compound gave an EC50 in assay [7] greater than 10 µM. Further, the inhibition at 10 µM in assay [7] came to 5.4%.

Take `Cc1ncc(-c2ccc3cnc(NC(=O)[C@H]4CC[C@H](CN5CC(F)C5)CC4)cc3c2)o1` [Compound 1018, trans-4-((3-Fluoroazetidin-1-yl)methyl)-N-(6-(2-methyloxazol-5-yl)isoquinolin-3-yl)cyclohexane-1-carboxamide]: the EC50 in assay [1] was determined as 280 nM; in assay [2] it was 88 nM; in assay [3] it was 54 nM; in assay [4], 2.5 nM; in assay [5], 0.608 µM; in assay [6], 0.498 µM. A half-maximal effect in assay [7] (EC50) was put at 0.441 µM.

Regarding `Cc1ncc(-c2ccc3cnc(NC(=O)CN4CCN(C)CC4)cc3c2)o1` [Compound 1019, N-(6-(2-Methyloxazol-5-yl)isoquinolin-3-yl)-2-(4-methylpiperazin-1-yl) acetamide], the EC50 in assay [1] was determined as 1500 nM; in assay [2] it was 6530 nM; in assay [3] it was 158 nM; in assay [4] it was 28.9 nM; in assay [5], 3.8 µM; in assay [6], 9.38 µM. This compound also registered an EC50 in assay [7] of 8.97 µM.

As to `CC(C)CN1CCC(F)(C(=O)Nc2cc3cc(-c4cnc5n4CCNC5)ccc3cn2)CC1` [Compound 1021, 4-Fluoro-1-isobutyl-N-(6-(5,6,7,8-tetrahydroimidazo[1,2-a]pyrazin-3-yl)isoquinolin-3-yl)piperidine-4-carboxamide], the EC50 in assay [1] was 5700 nM; in assay [2], 4490 nM; in assay [3] it was 1580 nM; in assay [4], 42.2 nM; in assay [5], greater than 10 µM; in assay [6] it was greater than 10 µM. Also, in assay [7], the half-maximal effective concentration (EC50) was greater than 10 µM. Moreover, the inhibition at 10 µM in assay [5] was determined as 16.5%; in assay [6], 11.6%; in assay [7] it was 5.1%.

As for `O=C(Nc1cc2cc(-c3cnn4c3CN(CCF)CC4)ccc2cn1)C1CCNCC1` [Compound 1022, N-(6-(5-(2-Fluoroethyl)-4,5,6,7-tetrahydropyrazolo[1,5-a]pyrazin-3-yl)isoquinolin-3-yl)piperidine-4-carboxamide], the EC50 stood at 9600 nM in assay [1]; 222 nM in assay [2]; 124 nM in assay [3]; 4.2 nM in assay [4]; 1.37 µM in assay [5]; 3.34 µM in assay [6]. In addition, the EC50 in assay [7] is 3.29 µM.

As to `CC(C)CN1CCC(F)(C(=O)Nc2cc3cc(-c4cnn5c4CN(CCF)CC5)ccc3cn2)CC1` [Compound 1023, 4-Fluoro-N-(6-(5-(2-fluoroethyl)-4,5,6,7-tetrahydropyrazolo[1,5-a]pyrazin-3-yl)isoquinolin-3-yl)-1-isobutylpiperidine-4-carboxamide], the EC50 was 1800 nM in assay [1]; 4670 nM in assay [2]; 838 nM in assay [3]; 8.7 nM in assay [4]; greater than 10 µM in assay [5]; greater than 10 µM in assay [6]. The same compound gave an EC50 in assay [7] greater than 10 µM. The values for the inhibition at 10 µM in assay [5], in assay [6] and in assay [7] were 38.2%, 39.9% and 20.7%, respectively.

`CN1CCN(CC(=O)Nc2cc3cc(-c4cnn5c4CN(CCF)CC5)ccc3cn2)CC1` [Compound 1024, N-(6-(5-(2-Fluoroethyl)-4,5,6,7-tetrahydropyrazolo[1,5-a]pyrazin-3-yl)isoquinolin-3-yl)-2-(4-methylpiperazin-1-yl)acetamide]: the EC50 stood at 1200 nM in assay [1]; 549 nM in assay [2]; 150 nM in assay [3]; 17 nM in assay [4]; 3.51 µM in assay [5]; 6.77 µM in assay [6]. The compound also yielded an EC50 in assay [7] greater than 10 µM. Further, the inhibition at 10 µM in assay [7] came out at 33.1%.
